Laboratory results from patent US10954461B2, “Methods for preventing microbial growth and microbiologically influenced corrosion in a biodegradable and/or renewable fuel, hydraulic fluid and/or lubricant” (TRIBORON INTERNATIONAL AB, priority 2016, dated 2021).

What was measured:
microbial growth = settings: lowest tested concentration (1:2000, 44 ppm boric acid, 7.5 ppm boron); HVO and RME with lake water; initial results
Protocol: 20 samples were prepared, 10×50 g of each fuel type, HVO and RME respectively. For each fuel type, there were four boron concentrations and a reference. One of each concentration and fuel was placed in a heating chamber at 45° C. and in front of a window subjected to sunlight. Water was taken from a lake nearby and stored in the heat chamber for an amount of time to enhance microorganism content and activity. 15 g of lake water was added to each sample, and the contaminated samples stored one week in 45° C. and exposed to sunlight. A stable solution of inorganic boron in ethanol was added to each sample in different dilutions, corresponding to the theoretical concentrations in the samples shown in table 3: [table]

[1] = based on available in vitro data; SCCS opinion 2010; cited from earlier work

In the case of `OB(O)O` [boric acid], the “effect on microbial growth in contaminated samples” value (microbial growth) is listed as “marked effect” and the mutagenicity [1] is listed as “non-mutagenic”.
